Data on 2 molecules can be found in paper PMC11480233, “Structural insights into the Caprin-2 HR1 domain in canonical Wnt signaling” (The Journal of Biological Chemistry, 2024).

Changes are numbered by the printed parent chain. Names and notes keep the numbering of the source.

Series [1] has as its target T1, hCap2_HR1 (HR1 domain of human Caprin-2) (Homo sapiens, UniProt Q6IMN6, R200E/R201E).
T1 construct: gene CAPRIN2; HR1 domain, aa S102-K351, E. coli BL21-CodonPlus-RIL, modified pET-28a with His tag and TEV site; His tag kept for lipid strip
T1 sequence (Q6IMN6 102-351 R200E/R201E): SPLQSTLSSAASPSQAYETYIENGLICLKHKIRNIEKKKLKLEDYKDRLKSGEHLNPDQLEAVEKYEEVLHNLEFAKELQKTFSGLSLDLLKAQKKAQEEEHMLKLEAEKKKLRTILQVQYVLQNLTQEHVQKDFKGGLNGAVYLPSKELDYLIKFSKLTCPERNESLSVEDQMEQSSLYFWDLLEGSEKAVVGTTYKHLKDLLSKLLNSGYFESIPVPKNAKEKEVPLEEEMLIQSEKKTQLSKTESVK
The experiment in a line: biolayer interferometry (Octet Red96). It is filed as binding. Particulars: labelled compound; biotinylated PI4P immobilised on streptavidin sensors; 20 mM Tris pH 7.5, 150 mM NaCl, 0.2 mM DTT, 0.05% Tween-20, 0.2 mg/ml BSA.

Series [2] addresses T2, hCap2_HR1 (HR1 domain of human Caprin-2) (Homo sapiens, UniProt Q6IMN6).
T2 construct: gene CAPRIN2; HR1 domain, aa S102-K351, E. coli BL21-CodonPlus-RIL, modified pET-28a with His tag and TEV site; His tag kept for lipid strip
T2 sequence (Q6IMN6 102-351): T1 sequence (Q6IMN6 102-351 R200E/R201E) with E99R, E100R
The experiment in a line: biolayer interferometry (Octet Red96). In kind it is binding. Particulars: labelled compound; biotinylated PI4P immobilised on streptavidin sensors; 20 mM Tris pH 7.5, 150 mM NaCl, 0.2 mM DTT, 0.05% Tween-20, 0.2 mg/ml BSA.

Series [3] deals with the molecule itself. The experiment in a line: SEC; Superdex 200 with a calibration curve; estimated MW 66.45 kDa against theoretical 29.2 kDa.

A word on the Kd: it is the constant that tells how readily two partners part at equilibrium. As to biotinylated PI4P, the figures for the dissociation constant (Kd) in series [1] and in series [2] were 152 µM and 2 µM, respectively.

B1: HR1 domain of human Caprin-2 (aa S102-K351) (domain or fragment, UniProt Q6IMN6 102-351, looked up)
chain: T1 sequence (Q6IMN6 102-351 R200E/R201E) with E99R, E100R
notes: Caprin-2, human, HR1 domain construct, residues S102-K351, cloned from full-length human Caprin-2; Modified pET-28a vector with a TEV site in place of the thrombin site; A SeMet triple mutant I217M/L251M/L301M of the same limits was used for phasing; also called hCap2_HR1; Cap2_HR1
The term stoichiometry N denotes a count of units in the complex or per binding partner. For the molecule B1, the “stoichiometry N” value in series [3] is 2.
